Test results reported in PMC12648443, “Modifications of NU-9, a potent protein aggregation inhibitor. Properties and activity in a cellular model of amyotrophic lateral sclerosis” (Bioorganic chemistry, 2025).

Legend:
[1] = test system: PC12-SOD1^G85R YFP cells co-treated with MG132; test: Viability screening against MG132-induced toxicity, CellTiter-Glo; type: cell-based; details: PC12-SOD1^G85R YFP cells co-treated with MG132 and the compounds; read-out: PC12-SOD1^G85R EC50, in vitro viability screening (protection against MG132-induced toxicity)
Method: The HepG2 and HEK293 cells were cultured in DMEM media supplemented with 10 % FBS (heat-inactivated), 1 % Pen-strep, and L-glutamine and incubated at 37 °C in humidified air with 5 % CO2 until 85–90 % confluency. The PC12 Tet-Off-SOD1^G85R YFP cells were maintained as described in 4.2. On the day before the experiments, the cells were transferred to white bottom 96 well plates (Greiner cat. 655,083) at a concentration of 50,000 cells/100 μL of media in each well and incubated overnight at 37 °C. Stock solutions of the compounds (30 mM) in DMSO were prepared and then diluted in media to obtain the six final working solutions starting at 30 μM, and serial dilutions were obtained with the lowest concentration at 0.25 μM. The media were removed and fresh media containing the compounds or the vehicle DMSO (0.1 % v/v) were transferred to the plates containing HepG2 and HEK293 cells and the plates were incubated for 24 or 48 h at 37 °C. The PC12 Tet-Off-SOD1^G85R YFP cells compound treatment was performed as described in section 4.2 and using a 9-point 2-fold serial dilution of the compounds starting at 15 μM and the lowest concentration at 0.05 μM. After incubation, the plates were cooled to room temperature and 25 μL of CellTiter-Glo® solution was added to each well. The plates were loaded into a BioTek Synergy H1 MD plate reader and shaken for 2 min, stabilized for 10 min without shaking, and then the luminescence values were read for each well (luminescence integration step 1 ms). Wells containing media with the vehicle DMSO with or without cells were used as controls to represent, respectively, the maximum viability and the lowest viability (background signal) for the cytotoxicity studies with HepG2 and HEK293 cell lines. The viability values for the assay performed with the PC12 Tet-Off-SOD1^G85R YFP cells were normalised for the vehicle (0.1 % DMSO) and (−)-MG-132 alone treatments, which represented respectively the […] viability for the assay. […]

[2] = In vitro cytotoxicity, CellTiter-Glo, HEK293; type: cell-based; details: human, HEK293 cells; for viability at 24 h, 30 μM / viability at 48 h, 30 μM: relative to untreated cells, read-out: Percentage of viable cells observed at 30 μM treatment, HEK293; for EC50 at 24 h / EC50 at 48 h: cytotoxicity
Method: (§1) The HepG2 and HEK293 cells were cultured in DMEM media supplemented with 10 % FBS (heat-inactivated), 1 % Pen-strep, and L-glutamine and incubated at 37 °C in humidified air with 5 % CO2 until 85–90 % confluency. The PC12 Tet-Off-SOD1^G85R YFP cells were maintained as described in 4.2. On the day before the experiments, the cells were transferred to white bottom 96 well plates (Greiner cat. 655,083) at a concentration of 50,000 cells/100 μL of media in each well and incubated overnight at 37 °C. Stock solutions of the compounds (30 mM) in DMSO were prepared and then diluted in media to obtain the six final working solutions starting at 30 μM, and serial dilutions were obtained with the lowest concentration at 0.25 μM. The media were removed and fresh media containing the compounds or the vehicle DMSO (0.1 % v/v) were transferred to the plates containing HepG2 and HEK293 cells and the plates were incubated for 24 or 48 h at 37 °C. The PC12 Tet-Off-SOD1^G85R YFP cells compound treatment was performed as described in section 4.2 and using a 9-point 2-fold serial dilution of the compounds starting at 15 μM and the lowest concentration at 0.05 μM. After incubation, the plates were cooled to room temperature and 25 μL of CellTiter-Glo® solution was added to each well. The plates were loaded into a BioTek Synergy H1 MD plate reader and shaken for 2 min, stabilized for 10 min without shaking, and then the luminescence values were read for each well (luminescence integration step 1 ms). Wells containing media with the vehicle DMSO with or without cells were used as controls to represent, respectively, the maximum viability and the lowest viability (background signal) for the cytotoxicity studies with HepG2 and HEK293 cell lines. The viability values for the assay performed with the PC12 Tet-Off-SOD1^G85R YFP cells were normalised for the vehicle (0.1 % DMSO) and (−)-MG-132 alone treatments, which represented respectively the […] viability for the assay.
(§2) The results are presented as an average of three independent experiments, each performed in triplicate, for the cytotoxicity experiments performed with HepG2 and HEK293 cells. The results for the protective screening with the PC12 Tet-Off-SOD1^G85R YFP cells are presented as an average of four replicates.

HepG2 cells = test: In vitro cytotoxicity, CellTiter-Glo, HepG2; type: cell-based; details: cytotoxicity EC50 (HepG2, HEK293) versus PC12-SOD1^G85R EC50
Method: as §1, §2

[3] = In vitro cytotoxicity, CellTiter-Glo, HepG2; type: cell-based; details: human, HepG2 cells; for viability at 24 h, 30 μM / viability at 48 h, 30 μM: relative to untreated cells, read-out: Percentage of viable cells observed at 30 μM treatment, HepG2; for EC50 at 24 h / EC50 at 48 h: cytotoxicity
Method: as §1, §2

[4] = Parallel artificial membrane permeability assay - blood brain barrier (PAMPA-BBB); details: for Log Pe: PAMPA-BBB, High permeability LogPe > −5.33, No permeability LogPe < −6.14; for Papp at 18 h, 250 μM: pig, PAMPA, pH 7.5
[5] = test system: MG132-induced mutant SOD1 intracellular aggregation in PC12-SOD1^G85R YFP cells; test: Protection against MG132-induced mut-SOD1 intracellular aggregation (fluorescence microscopy); type: cell-based; details: PC12-SOD1^G85R YFP cells, 0.7 μM MG132, 72 h; Inactive = no decrease of aggregates at 10 μM vs vehicle
Method: The PC12 Tet-Off-SOD1^G85R YFP cells were cultured in DMEM media supplemented with 10 % horse serum, 5 % Tet-approved FBS, 1 % Penstrep, 1× L-glutamine, 200 μg/mL hygromycin, 100 μg/mL G418, with 1 μg/mL Doxycycline and were incubated at 37 °C in humidified air with […] until 90–95 % confluency. To induce the expression of SOD1^G85R YFP, the Doxycycline was removed at least 4 days before the experiment. To remove the Doxycycline, the media was removed, and the cells were washed 3 times with 1xPBS. The cells were then cultured in standard culture media without Doxycycline. To set up the assay, the cells were then seeded into 96-well cell culture plates (Greiner Bio-One Catalog #655090) at a concentration of 50,000 cells/well with a final volume of 100 μL/well and incubated in the CO2 incubator at 37 °C for 24 h. The media were removed from the cells and replaced with 100 μL of media containing 0.1 % DMSO or compounds, and incubated in the CO2 incubator at 37 °C for 6 h. The media were then replaced with fresh 100 μL of media containing the diluted compounds with 0.7 μM (−)-MG-132, and the plates were incubated for 72 h under culture conditions. After 72 h, the cells were stained with Hoescht 33,342 (55 μg/mL, 10 μL/well) and imaged (lex = 358, 513 nm) using a Molecular Devices ImageXpress Micro Confocal High-Content Imaging System equipped with a 40× objective. […] Image binning was set to 2. DAPI fluorescence was captured using an exposure time of 300 ms, and FITC fluorescence was captured using an exposure time of 400 ms. A 13-plane z-series was acquired for each field of view with a step size of 3 μm. For each condition, 2 sets of 9 images were generated in a 3 × 3 grid to separately image the SOD1^G85R YFP proteins and the nuclei stained with Hoescht 33,342. Image analysis was performed with MetaXpress software (Molecular Devices) using the Transfluor module. Parameters for puncta detection (aggregates) were set with a minimum pit width of 2 μm and a maximum pit width of 5 μm. Signal intensity thresholds were defined as 700 grayscale units above the local background. The analysis provided the average area of each cell that is covered by puncta (pit/cell), which are indicated by bright green spots on the SOD1^G85RYFP image set.
The assay was performed in triplicate for each condition tested, and wells containing the media with vehicle (0.1 % DMSO) or (−)-MG-132 alone were used as controls representing the minimum and maximum aggregate formation. […] The data for EC50 determination was treated with Prism and fitted using a semi-logarithmic curve for determination of the EC50 values of NU9 and compounds 4, 6, 20 and 21.

Log Pe [4] | Papp at 18 h, 250 μM [4] [×10⁻⁶ cm/s] | EC50 [5] [µM] | Structure (SMILES) | EC50 [1] [µM] | viability at 24 h, 30 μM [2] [%] | viability at 48 h, 30 μM [2] [%] | EC50 at 24 h [2] [µM] | EC50 at 48 h [2] [µM] | EC50 Fold difference (HepG2 cells) | viability at 24 h, 30 μM [3] [%] | viability at 48 h, 30 μM [3] [%] | EC50 at 24 h [3] [µM] | EC50 at 48 h [3] [µM]
−5.07 | 8.46 ± 0.1 | 2.06 ± 0.24 | O=C1CC(=O)CC(/C=C/c2cc(C(F)(F)F)cc(C(F)(F)F)c2)C1 [Compound 6, (E)-5-(3,5-Bis(trifluoromethyl)styryl)cyclohexane-1,3-dione] | 1.98 ± 0.25 | 82.6 | 89.6 | > 30 | > 30 | >14 | 91.9 | 94 | > 30 | > 30
−4.94 | 11.5 ± 0.66 | 2.63 ± 0.27 | CC(C)(Oc1cc(C(F)(F)F)cc(C(F)(F)F)c1)C1CC(=O)CC(=O)C1 [Compound 20, 5-(2-(3,5-bis(trifluoromethyl)phenoxy)propan-2-yl)cyclohexane-1,3-dione] | 2.47 ± 0.15 | 90 | 91.6 | > 30 | > 30 | >11 | 96 | 92.3 | > 30 | > 30
